# What was measured:
# Format in all cases: in vivo
# [1] = test system: diamondback moth (Plutella xylostella); test: Insecticidal effect on diamondback moth (Test Example 1); details: for Insecticidal effect, Test Example 1 / Insecticidal effect (Test Example 1), judged from mortality: diamondback moth; for Insecticidal effect (Test Example 1), judged from mortality: judged by the criterion of Test Example 1; for Insecticidal effect on diamondback moth (Test Example 1), judged grade: mortality judged according to the criterion shown in Test Example 1
# How it was run: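 Oviposition by adults on Chinese cabbage seedling; immersion; air-dry; 25° C room. Count of hatched larvae at day 6 post-immersion → mortality → effect graded by criterion. Triplicate, 10 insects/group.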
# [2] = test system: common cutworm (Spodoptera Litura); test: Insecticidal effect on common cutworm (Test Example 2); details: 500 ppm, 25° C.; for Insecticidal effect, Test Example 2: cabbage leaf immersed; for Insecticidal effect, Test Example 2 / Insecticidal effect on common cutworm (Test Example 2), judged grade: eight days after inoculation; for Insecticidal effect (Test Example 2), judged from mortality / Insecticidal effect on common cutworm (Test Example 2), judged grade: cabbage leaf dip; for Insecticidal effect (Test Example 2), judged from mortality: 8 days after inoculation; for Insecticidal effect on common cutworm (Test Example 2), judged grade: second-instar larvae
# How it was run: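 2nd-instar larvae on air-dried treatment, closed dish, 25° C; dead/alive counted at day 8. Mortality calculated, graded by criterion. 3 × 10 insects.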
# [3] = test system: rice leafroller (Cnaphalocrocis medinalis); test: Insecticidal effect on rice leafroller (Test Example 3); details: 500 ppm, 25° C., humidity 70%; for Insecticidal effect, Test Example 3: rice lamina immersed; for Insecticidal effect, Test Example 3 / Insecticidal effect on rice leafroller (Test Example 3), judged grade: four days after inoculation; for Insecticidal effect (Test Example 3), judged from mortality / Insecticidal effect on rice leafroller (Test Example 3), judged grade: rice lamina dip; for Insecticidal effect (Test Example 3), judged from mortality: 4 days after inoculation; for Insecticidal effect on rice leafroller (Test Example 3), judged grade: third-instar larvae
# How it was run: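 Insecticidal effect is judged by a predefined criterion from dead/alive counts four days after infesting air-dried lamina with third-instar larvae, kept on moistened filter paper at 25° C, 70% humidity.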
# [4] = judged by the mortality criterion of Test Example 1
# [5] = second-instar larvae of common cutworm
# [6] = third-instar larvae of rice leafroller
# [7] = mortality judged by criterion of Test Example 1
# [8] = common cutworm second-instar larvae
# [9] = rice leafroller third-instar larvae
structure (smiles),measurement,setting,value
Cc1c(Cl)ccc(NC(=O)c2cccc(I)c2C(=O)NC(C)C)c1C [compound 365],"Insecticidal effect, Test Example 1",[1]; [4],A (100)
same,"Insecticidal effect, Test Example 2",[2]; [5],A (100)
same,"Insecticidal effect, Test Example 3",[3]; [6],A (100)
COc1cc(C(F)(F)C(F)(F)F)ccc1NC(=O)c1cccc(I)c1C(=O)NC(C)C [compound 1388],"Insecticidal effect, Test Example 1",[1]; [7],A (100)
same,"Insecticidal effect, Test Example 2",[2]; [8],D (79-50)
same,"Insecticidal effect, Test Example 3",[3]; [9],A (100)
Cc1ccc(Cl)cc1NC(=O)c1cccc(Cl)c1C(=O)NC(C)C [compound 120],"Insecticidal effect, Test Example 1",[1]; [4],A (100)
same,"Insecticidal effect, Test Example 2",[2]; [5],D (79-50)
same,"Insecticidal effect, Test Example 3",[3]; [6],A (100)
Cc1cc(OC(F)(F)C(F)Cl)ccc1NC(=O)c1c(Cl)cccc1C(=O)NC(C)C (stereo not drawn) [compound 241],"Insecticidal effect, Test Example 1",[1]; [4],A (100)
same,"Insecticidal effect, Test Example 2",[2]; [5],B (99-90)
same,"Insecticidal effect, Test Example 3",[3]; [6],A (100)
CC(C)NC(=O)c1c(I)cccc1C(=O)Nc1cc2c(cc1Cl)OC(F)(F)C(F)(F)O2 [compound 1625],"Insecticidal effect (Test Example 1), judged from mortality",[1],A (100)
same,"Insecticidal effect (Test Example 2), judged from mortality",[2]; [5],A (100)
same,"Insecticidal effect (Test Example 3), judged from mortality",[3]; [6],A (100)
Cc1cc(OC(F)(F)C(F)(Br)C(F)(F)F)ccc1NC(=O)c1cccc(I)c1C(=O)NC(C)C (stereo not drawn) [compound 394],"Insecticidal effect, Test Example 1",[1]; [4],A (100)
same,"Insecticidal effect, Test Example 2",[2]; [5],A (100)
same,"Insecticidal effect, Test Example 3",[3]; [6],A (100)
CCCNC(=O)c1c(I)cccc1C(=O)Nc1ccc(OC(F)(F)C(F)F)cc1C [compound 1058],"Insecticidal effect, Test Example 1",[1]; [7],A (100)
same,"Insecticidal effect, Test Example 2",[2]; [8],A (100)
same,"Insecticidal effect, Test Example 3",[3]; [9],A (100)
CCOCCNC(=O)c1c(I)cccc1C(=O)Nc1ccc(C(F)(F)C(F)(F)F)cc1C [compound 983],"Insecticidal effect, Test Example 1",[1]; [7],A (100)
same,"Insecticidal effect, Test Example 2",[2]; [8],A (100)
same,"Insecticidal effect, Test Example 3",[3]; [9],A (100)
Cc1cc(OC(F)F)ccc1NC(=O)c1ccc(Cl)cc1C(=O)NC(C)C [compound 180],"Insecticidal effect, Test Example 1",[1]; [4],A (100)
same,"Insecticidal effect, Test Example 2",[2]; [5],A (100)
same,"Insecticidal effect, Test Example 3",[3]; [6],A (100)
Cc1cc(OC(F)F)ccc1NC(=O)c1cccc(F)c1C(=O)NC(C)(C)C [compound 1506],"Insecticidal effect (Test Example 1), judged from mortality",[1],A (100)
same,"Insecticidal effect (Test Example 2), judged from mortality",[2]; [5],A (100)
same,"Insecticidal effect (Test Example 3), judged from mortality",[3]; [6],A (100)
Cc1cc(OC(F)(F)C(F)Cl)ccc1NC(=O)c1cccc(I)c1C(=O)NC(C)C (stereo not drawn) [compound 392],"Insecticidal effect, Test Example 1",[1]; [4],A (100)
same,"Insecticidal effect, Test Example 2",[2]; [5],A (100)
same,"Insecticidal effect, Test Example 3",[3]; [6],A (100)
CCCCNC(=O)c1c(I)cccc1C(=O)Nc1ccc(C(F)(F)C(F)(F)F)cc1C [compound 945],"Insecticidal effect, Test Example 1",[1]; [7],A (100)
same,"Insecticidal effect, Test Example 2",[2]; [8],A (100)
same,"Insecticidal effect, Test Example 3",[3]; [9],A (100)
Cc1cc(C(F)(C(F)(F)F)C(F)(F)F)ccc1NC(=O)c1c(I)cccc1C(=O)NC(C)C [compound 439],"Insecticidal effect, Test Example 1",[1]; [4],A (100)
same,"Insecticidal effect, Test Example 2",[2]; [5],A (100)
same,"Insecticidal effect, Test Example 3",[3]; [6],A (100)
Cc1cc([S+]([O-])C(F)(F)F)ccc1NC(=O)c1cccc(I)c1C(=O)NC(C)C (stereo not drawn) [compound 1168],"Insecticidal effect, Test Example 1",[1]; [7],A (100)
same,"Insecticidal effect, Test Example 2",[2]; [8],A (100)
same,"Insecticidal effect, Test Example 3",[3]; [9],A (100)
CC(C)NC(=O)c1c(I)cccc1C(=O)Nc1ccc(C(F)(F)F)cc1Cl [compound 369],"Insecticidal effect, Test Example 1",[1]; [4],A (100)
same,"Insecticidal effect, Test Example 2",[2]; [5],A (100)
same,"Insecticidal effect, Test Example 3",[3]; [6],A (100)
CC(C)NC(=O)c1c(C(=O)Nc2ccc(C(O)(C(F)(F)F)C(F)(F)F)cc2)cccc1[N+](=O)[O-] [compound 979],"Insecticidal effect, Test Example 1",[1]; [7],A (100)
same,"Insecticidal effect, Test Example 2",[2]; [8],A (100)
same,"Insecticidal effect, Test Example 3",[3]; [9],A (100)
Cc1c(Br)ccc(NC(=O)c2c(Br)cccc2C(=O)NC(C)C)c1C [compound 312],"Insecticidal effect, Test Example 1",[1]; [4],A (100)
same,"Insecticidal effect, Test Example 2",[2]; [5],A (100)
same,"Insecticidal effect, Test Example 3",[3]; [6],A (100)
CCN(CC)C(=O)c1c(Cl)cccc1C(=O)Nc1ccc(C(F)(F)F)cc1 [compound 1545],"Insecticidal effect (Test Example 1), judged from mortality",[1],A (100)
same,"Insecticidal effect (Test Example 2), judged from mortality",[2]; [5],D (79-50)
same,"Insecticidal effect (Test Example 3), judged from mortality",[3]; [6],A (100)
Cc1cc(OC(F)(F)F)ccc1NC(=O)c1ccccc1C(=O)NC(C)(C)C [compound 930],"Insecticidal effect on diamondback moth (Test Example 1), judged grade",[1],A (100)
same,"Insecticidal effect on common cutworm (Test Example 2), judged grade",[2],A (100)
same,"Insecticidal effect on rice leafroller (Test Example 3), judged grade",[3],A (100)
Cc1cc(OC(F)(F)C(F)(F)Br)ccc1NC(=O)c1cccc([N+](=O)[O-])c1C(=O)NC(C)C [compound 698],"Insecticidal effect on diamondback moth (Test Example 1), judged grade",[1],A (100)
same,"Insecticidal effect on common cutworm (Test Example 2), judged grade",[2],B (99-90)
same,"Insecticidal effect on rice leafroller (Test Example 3), judged grade",[3],A (100)
CC(C)NC(=O)c1c(I)cccc1C(=O)Nc1ccc(I)cc1 [compound 347],"Insecticidal effect, Test Example 1",[1]; [4],A (100)
same,"Insecticidal effect, Test Example 2",[2]; [5],B (99-90)
same,"Insecticidal effect, Test Example 3",[3]; [6],C (89-80)
CC(C)NC(=O)c1c(Cl)cccc1C(=O)Nc1ccc(OC(F)(F)C(F)OC(F)(F)C(F)(F)C(F)(F)F)cc1 (stereo not drawn) [compound 93],"Insecticidal effect, Test Example 1",[1]; [4],A (100)
same,"Insecticidal effect, Test Example 2",[2]; [5],A (100)
same,"Insecticidal effect, Test Example 3",[3]; [6],A (100)
CSc1cccc(C(=O)Nc2ccc(OC(F)F)cc2C)c1C(=O)NC(C)C [compound 783],"Insecticidal effect on diamondback moth (Test Example 1), judged grade",[1],A (100)
same,"Insecticidal effect on common cutworm (Test Example 2), judged grade",[2],A (100)
same,"Insecticidal effect on rice leafroller (Test Example 3), judged grade",[3],A (100)
Cc1cc(OCC(F)OC(F)(F)F)ccc1NC(=O)c1cccc([N+](=O)[O-])c1C(=O)NC(C)C (stereo not drawn) [compound 701],"Insecticidal effect on diamondback moth (Test Example 1), judged grade",[1],A (100)
same,"Insecticidal effect on common cutworm (Test Example 2), judged grade",[2],A (100)
same,"Insecticidal effect on rice leafroller (Test Example 3), judged grade",[3],A (100)
CC(C)NC(=O)c1c(I)cccc1C(=O)Nc1ccc(F)cc1F [compound 1055],"Insecticidal effect, Test Example 1",[1]; [7],A (100)
same,"Insecticidal effect, Test Example 2",[2]; [8],A (100)
same,"Insecticidal effect, Test Example 3",[3]; [9],A (100)

# — US6362369B1, “Phthalic acid diamide derivatives fluorine-containing aniline compounds as starting material, agricultural and horticultural insecticides, and a method for application of the insecticides” (Nihon Nohyaku Co., Ltd., priority 1997, dated 2002)
